Twelve compounds from ChEMBL document CHEMBL1201862, “PubChem BioAssay data set” (2004) can be followed below.

What all share (experiment): NCI anticancer screen, dose series, 48 h
Test [1] deals with HCC 2998.
Test [2] deals with DU-145.
Test [3] has as its system NCI/ADR-RES.
Test [4] relates to MDA-N.
The subject of test [5] is MCF7.
Test [6] has as its system MDA-MB-231.
Test [7] concerns SF-539.
Test [8] deals with PC-3.
The subject of test [9] is T47D.
Test [10] has as its system SK-MEL-28.
The subject of test [11] is SF-268.
The test system of test [12] is HCT-116.
Test [13] relates to HOP-62.
Test [14] relates to NCI-H23.
The test system of test [15] is CAKI-1.
In test [16] the test system is Hs-578T.
For test [17], the system named is BT-549.
Test [18] has as its system NCI-H522.

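How tested: cells in 96-well plates exposed to compound for 48 hours at five concentrations. GI50 = concentration required for 50% inhibition of growth.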 Active and inactive are the calls of the source. Cut-off read from the data, not from the text of the source: active = GI50 up to about 1.1 µM and inactive = higher.

Consider `C=Cc1cnc([N+](=O)[O-])n1C`, for which the GI50 in [1] is 42.7 µM (inactive); in [2], 37.1 µM (inactive); in test [3] it was > 100 µM (inactive); in test [4], 40 µM (inactive); in [5], 59 µM (inactive); in test [6], > 100 µM (inactive). The GI50 in test [7] is 74.1 µM (inactive); in test [8], 40.8 µM (inactive); in test [9] it was 46.5 µM (inactive); in [10] it was 72.1 µM (inactive); in test [11], 46.7 µM (inactive); in test [12], 57.1 µM (inactive). The GI50 in [13] is 92 µM (inactive); in test [14] it was 98.9 µM (inactive); in [15], 42.5 µM (inactive); in test [16], 35.7 µM (inactive); in [17], 46.3 µM (inactive).
As to `CNc1ccc2c(c1)[C@@]1(C)c3ccccc3[C@@H](C2)N1C`, the GI50 in test [1] was 20.1 µM (inactive); in test [2], 39.5 µM (inactive); in [3], 27.4 µM (inactive); in test [4], 24.4 µM (inactive); in [5], 29.7 µM (inactive); in test [18] it was 15.7 µM (inactive). Besides, the GI50 in test [6] was 23.2 µM (inactive); in [8], 29.9 µM (inactive); in [9], 28.1 µM (inactive); in test [11], 44.4 µM (inactive); in test [12] it was 16.1 µM (inactive); in [13], 42.1 µM (inactive). The GI50 in [14] is 22.6 µM (inactive); in test [15] it was 36.5 µM (inactive); in test [16] it was 29.7 µM (inactive); in [17], 17.6 µM (inactive).
`CCOC(=O)c1ccc(C(=O)n2ccnc2)[nH]1`: the GI50 in [1], in test [2], in [3], in test [4], in test [5] and in test [18] was > 100 µM (inactive) each time. Also, the GI50 in test [6], in [8], in test [9], in test [10], in [11] and in [12] was > 100 µM (inactive) in each case. In addition, the GI50 in test [13], in test [14], in test [15], in test [16] and in [17] was > 100 µM (inactive) throughout.
For the compound `C=C1CC(C)(COc2ccc3c(C)c(C)c(=O)oc3c2C)OC1=O` (stereo not drawn), the GI50 in test [1] was 1.76 µM (inactive); in [2], 2.51 µM (inactive); in test [3] it was 2.46 µM (inactive); in test [4] it was 1.77 µM (inactive); in [5] it was 1.29 µM (inactive); in [18], 1.56 µM (inactive). Further, the GI50 in test [6] is 2.52 µM (inactive); in [7], 2.24 µM (inactive); in test [8], 2.27 µM (inactive); in test [9], 1.28 µM (inactive); in [10], 2.07 µM (inactive); in [11], 4.15 µM (inactive). In addition, the GI50 in test [12] is 0.879 µM (active); in test [13], 12.5 µM (inactive); in [14], 1.82 µM (inactive); in test [15], 1.7 µM (inactive); in test [16], 1.9 µM (inactive); in [17], 1.5 µM (inactive).
In the case of `Cc1ccc(S(=O)(=O)NC(=O)NC(CCCCNC(=N)N)C(=O)O)cc1` (stereo not drawn), the GI50 in [2], in [3], in [4], in test [5], in test [18] and in test [6] was > 100 µM (inactive) throughout. Further, the GI50 in test [7], in test [8], in test [9], in test [10], in [11] and in test [12] was > 100 µM (inactive) in each case. The GI50 in test [13], in test [14], in test [16] and in [17] was > 100 µM (inactive) in each case.
`Cc1nc2ccc(S(=O)(=O)Nc3nccs3)cc2c(=O)n1NS(=O)(=O)c1nccs1`: the GI50 in test [1] was > 100 µM (inactive); in [2], > 100 µM (inactive); in test [3] it was > 100 µM (inactive); in [4], > 100 µM (inactive); in test [5] it was 37.4 µM (inactive); in test [18] it was 60.8 µM (inactive). Moreover, the GI50 in test [6] was > 100 µM (inactive); in test [7] it was > 100 µM (inactive); in test [8], 86.9 µM (inactive); in test [9] it was > 100 µM (inactive); in test [10] it was > 100 µM (inactive); in [11], > 100 µM (inactive). In addition, the GI50 in test [13], in [14], in test [15], in test [16] and in test [17] was > 100 µM (inactive) each time.
`CC(C)=CCN1c2ccc(Cl)cc2NC(=O)CC1C` (stereo not drawn): the GI50 is 44.4 µM (inactive) in [1]; 42.1 µM (inactive) in test [2]; 21.7 µM (inactive) in test [4]; 21.4 µM (inactive) in test [5]; 12 µM (inactive) in test [18]; 19.3 µM (inactive) in [6]. Further, the GI50 in [7] was 20.5 µM (inactive); in [8], 23.8 µM (inactive); in test [9], 29.6 µM (inactive); in [10], 41.9 µM (inactive); in [11], 34.7 µM (inactive); in test [12], 18.4 µM (inactive). The GI50 is 23.5 µM (inactive) in [13]; 22.6 µM (inactive) in test [14]; 15.8 µM (inactive) in test [15]; 24.3 µM (inactive) in test [16]; 21.8 µM (inactive) in test [17].
For the compound `CCOC(=O)C(NC(=O)N(C1=NCC(C)S1)C1CCCCC1)(OC)C(F)(F)F` (stereo not drawn), the GI50 is 43.9 µM (inactive) in test [1]; 36.2 µM (inactive) in test [2]; 65.5 µM (inactive) in [3]; 30.9 µM (inactive) in test [4]; 23.4 µM (inactive) in test [5]; 27.7 µM (inactive) in test [18]. Moreover, the GI50 in [6] is 46.5 µM (inactive); in test [7] it was 32.3 µM (inactive); in test [8] it was 30.8 µM (inactive); in test [9], 32.5 µM (inactive); in test [10], 47.2 µM (inactive); in [11], 32.6 µM (inactive). Also, the GI50 in test [12] is 31.6 µM (inactive); in [13] it was 15.8 µM (inactive); in [14], 43.3 µM (inactive); in test [15], 34.6 µM (inactive); in [16] it was 42.5 µM (inactive); in test [17], 32.3 µM (inactive).
Turning to `CC(C)(CN1CCCCC1)C(=O)/C=C/c1c(Cl)cccc1Cl`, the GI50 was 1.83 µM (inactive) in test [1]; 0.769 µM (active) in [2]; 1.86 µM (inactive) in test [3]; 0.792 µM (active) in test [4]; 1.29 µM (inactive) in test [5]; 0.124 µM (active) in [18]. Besides, the GI50 was 0.789 µM (active) in test [6]; 2.08 µM (inactive) in test [7]; 1.91 µM (inactive) in [8]; 0.421 µM (active) in [9]; 1.56 µM (inactive) in test [10]; 1.13 µM (inactive) in test [11]. Besides, the GI50 in [12] was 0.637 µM (active); in test [13] it was 1.79 µM (inactive); in [14], 1.35 µM (inactive); in [15] it was 1.08 µM (active); in test [16], 2.17 µM (inactive); in test [17] it was 1.86 µM (inactive).
For the compound `COc1cc(CO)c(CC(=O)NCCCc2ccccc2)cc1OC`, the GI50 in [1] is > 100 µM (inactive); in [2], > 100 µM (inactive); in [3] it was 99.1 µM (inactive); in test [4], 34.1 µM (inactive); in test [6], > 100 µM (inactive); in test [8], > 100 µM (inactive). In addition, the GI50 was 15 µM (inactive) in [9]; > 100 µM (inactive) in test [10]; > 100 µM (inactive) in test [12]; > 100 µM (inactive) in [13]; > 100 µM (inactive) in test [14]; > 100 µM (inactive) in test [15]. Besides, the GI50 in test [16] and in test [17] was > 100 µM (inactive) throughout.
Take `CCCCCCc1cc2cc(C(=O)Nc3nc(C45CC6CC(CC(C6)C4)C5)cs3)c(=O)oc2cc1O`: the GI50 in test [1] is 8.15 µM (inactive); in [2], 22.1 µM (inactive); in test [3], 17.3 µM (inactive); in test [4], 11.4 µM (inactive); in test [5], 13.9 µM (inactive); in test [18] it was 3.45 µM (inactive). Moreover, the GI50 is 7.33 µM (inactive) in test [6]; 10.8 µM (inactive) in [7]; 9.27 µM (inactive) in test [8]; 5.68 µM (inactive) in test [9]; 29.3 µM (inactive) in [10]; 9.57 µM (inactive) in [11]. Further, the GI50 is 3.56 µM (inactive) in test [12]; 18.1 µM (inactive) in [13]; 5 µM (inactive) in test [14]; 8.81 µM (inactive) in [15]; 11.8 µM (inactive) in [16]; 23.8 µM (inactive) in test [17].
Regarding `S=C(S)N1CCN(c2ccccc2)CC1`, the GI50 in test [1] is 71.3 µM (inactive); in test [2], > 100 µM (inactive); in [3] it was > 100 µM (inactive); in test [4], > 100 µM (inactive); in test [5], > 100 µM (inactive); in [18], > 100 µM (inactive). In addition, the GI50 in [6] was > 100 µM (inactive); in test [7], > 100 µM (inactive); in test [8] it was > 100 µM (inactive); in test [9], > 100 µM (inactive); in test [10], 45.9 µM (inactive); in test [11], 88.3 µM (inactive). Moreover, the GI50 in [12] is 34.5 µM (inactive); in test [13] it was > 100 µM (inactive); in test [15], > 100 µM (inactive); in [16], > 100 µM (inactive); in test [17] it was > 100 µM (inactive).
